Reference: patent US20210070730A1, “H2S-BASED THERAPEUTIC AGENTS FOR THE TREATMENT OF NEURODEGENERATIVE DISEASES” (INTERNATIONAL SOCIETY FOR DRUG DEVELOPMENT S.R.L., priority 2017, published 2021)
Read-outs that look alike come from different tables or passages of the source. Marks after values point to notes of the source that are not given here.

Assays:
[1] = Amperometric determination of H2S release; type: physicochemical; conditions: assay buffer, absence or presence of L-cysteine
Description: FIG. 1: Curves describe the increase of H2S concentration, with respect to time, following the incubation of GYY 4137, the H2S-prodrug MT66 in the assay buffer, in the absence (white symbol) or in the presence of L-cysteine (black symbol) or glutathione (black triangles). H2S was recorded by amperometry; the vertical bars indicate the SEM.
Amperometric Determination of H2S: The characterization of the H2S-generating properties of the new compounds was carried out by amperometric approaches through an Apollo-4000 Free Radical Analyzer (WPI) detector and H2S-selective minielectrodes. The procedure has been recently reported by us.
The H2S-releasing properties were evaluated both in the absence or in the presence of an organic thiol such as L-cysteine.

NMDAR = assay: Displacement of specific [3H]MK-801 binding in rat cortex membranes
Description: [^3H]MK-801 Binding Assay. Crude synaptic membranes were prepared from the cerebral cortex of Sprague-Dawley rats. The pellets were stored at −80° C. for at least 24 h, and washed three more times with Tris-HEPES buffer (Tris 4.5 mM, HEPES 5 mM, pH 7.4) to remove the endogenous amino acids before the binding assay. In the binding assay, 50 μL of membrane preparation (40-50 μg protein), and 10 μL of compound were mixed at 25° C. in the presence of […] L-glutamate (10 μM) and 50 μL of glycine (10 μM). Then, 50 μl of [^3H]MK-801 (final concentration 3 nM) were added to the preparation. Tris-HEPES buffer was added to a final volume of 0.5 mL. Following incubation time of 2 h at 25° C., binding was terminated by filtration […]. Radioactivity was measured using a PerkinElmer liquid scintillation counter. Nonspecific binding was determined in the presence of unlabeled 100 μM MK-801. […] For compound activity determination, aliquots of membrane pellets were incubated with different ligand concentrations of MT66 and reference drug (10 nM-10 μM) in the absence of presence of 4 mM Cysteine for 30 min, and then incubated with 3 nM [^3H]MK-801 for 2 h at 25° C. Samples were then filtered, and the radioactivity was counted.
Displacement of specific [^3H]MK-801 binding in rat cortex membranes in the absence or presence of cysteine (Cys). MT66 was tested to assess its abilities to inhibit native-target activity (i.e. NMDAR). Binding to specific receptors (such as NMDAR) has been assessed using the assay based on the displacement of [^3H]MK-801 [19]. The evaluation has been performed in the presence and in absence of Cys.

[2] = tested on: Human neuronal-like cells; assay: Neuroprotection in LPS/TNF-α challenged neuronal-like cells (MTS assay); type: cell-based; conditions: 10 μM pre-treatment 24 or 72 h, then 50 μg/ml LPS and 50 ng/ml TNF-α 16 h
Description: FIG. 2: Neuroprotective effects. Human neuronal-like cells were treated with medium alone (CONTROL) or with the compounds (10 μM) for 24 h (light grey) or 72 h(dark grey); after drug removal, cells were incubated with 50 μg/ml LPS and 50 ng/ml TNF-α for an additional 16 h. At the end of treatment, cell proliferation was measured by MTS assay. The data are expressed as percentages relative to untreated cells (control), which were set at 100%, and represent the mean±SEM of three independent experiments, each performed in triplicate. Statistical significance was determined using a one-way ANOVA-Tukey HSD post hoc test: *P<0.05, ***P<0.001 vs. control; ##P<0.01, ###P<0.001 vs. cells treated with LPS-TNF-α.
Cell proliferation/viability assays: Following incubation time, cell viability was determined using the MTS assay according to the manufacturer's instruction. […] The absorbance of formazan at […] was measured in a colorimetric assay with an automated plate reader. The results were calculated by subtracting the mean background from the values obtained from each test condition, and are expressed as the percentage of the control (untreated cells).
Evaluation of neuroprotective effects. […] The effects of H2S prodrug under physiological conditions and under inflammatory stress exposure were assessed by measuring cellular viability.

[3] = tested on: Human neuronal-like cells; assay: ROS production in LPS/TNF-α challenged neuronal-like cells (DCFH2-DA); type: cell-based; conditions: 10 μM pre-treatment 24 h, then LPS and TNF-α 16 h
Description: FIG. 3. Effects induced on ROS production. Human neuronal-like cells were treated with medium alone (CONTROL) or the compound (10 μM) for 24 h; after drug removal, cells were incubated with 50 μg/ml LPS and 50 ng/ml TNF-α for an additional 16 h. At the end of treatment, ROS production was measured using the fluorogenic probe DCFH2-DA. The data are expressed as percentages relative to untreated cells (control), which were set at 100%, and represent the mean±SEM of two independent experiments, each performed in triplicate. Statistical significance was determined using a one-way ANOVA-Tukey HSD post hoc test: ***P<0.001 vs. control; ###P<0.001 vs. cells treated with LPS-TNF-α.
Mitochondria ROS generation: The generation of ROS was assessed by the fluorogenic probe DCFH2-DA (Molecular Probes, Invitrogen) in Neuronal-like cells, differentiated from H9-derived NSCs.). […] This nonfluorescent molecule is readily converted to a green-fluorescent form […] when the acetate group is removed by intracellular esterases and an oxidation by ROS occurs within the cell. […] Fluorescence increase was estimated in a plate reader at 485 nm (excitation) and 520 nm (emission) (Wallac, Victor 2, 1420 multilabel counter, PerkinElmer). The fluorescence values were normalized between samples for cell number content and assessed by a crystal violet cell staining assay. […]

[4] = tested on: Aβ(1-40) self-induced aggregation; assay: Thioflavin T fluorescence assay of Aβ aggregation; type: cell-based; conditions: 10 μM pre-treatment 24 h, ThT fluorescence
Description: The Thioflavin T fluorescence assay. Thioflavin T (ThT) dye fluorescence was used to quantify the formation and inhibition of amyloid oligomers in the presence of anti-amyloidogenic compounds. The ThT stock solution was prepared by adding 8 mg ThT to 10 mL phosphate buffer (10 mM phosphate, 150 mM NaCl, pH 7.0) and filter through a 0.2 μm syringe filter. This stock solution should be stored in the dark and is stable for about one week. On the day of the analysis, the stock solution was diluted into PBS to obtain the concentration of 10 μM. The Aβ1-42 oligomers were prepared by diluting the stock solution in PBS and the dilution was shaking for 48 hours at 37° C. The cells were seeded in black 96-multiwell plate (3000 c/w) and treated with the compound MT66 and reference drug (10 μM) for 24 h. Following incubation time, cells were washed and incubated with Aβ1-42 oligomers for 24 h. After this time, 200 μl of ThT 10 μM were added to each well in the dark. The ThT fluorescence intensity of each sample was recorded every 5 min using a spectrophotometer by excitation at 355 nm and emission 535 nm.
Inhibition of Aβ(1-40) self-induced aggregation. The new compound was also tested to evaluate their ability to inhibit the Aβ(1-40) self-induced aggregation.

U87MG cells = assay: Western blot of autophagy markers in U87MG cells; type: cell-based, human; conditions: 10 μM; for LC3II expression (LC3II/LC3I ratio) / p62 expression / p-mTOR expression (p-mTOR/mTOR ratio): 4 h; for LC3II expression: 24 h
Description: FIG. 6. Western blot quantification of LC3II/LC3I ratio, p62, mTOR and Akt as hallmarks of the degree of ATG activation. […] (D) Western blot quantification of pAkt/Akt ratio in U87MG cells. Results represent mean±SEM of three different gels. *P<0.05, **P<0.01, ***P<0.001 versus vehicle treated cells (Control).
Western blot analysis. The human U-87MG cells were seeded in 6-well plates in a final volume of 2 ml/well at a density of 1×10^6/well and grown to 80% of confluence with standard medium (DMEM-High Glucose). Cells were treated with vehicle (0.1% DMSO) or test compounds (i.e. 10 μM Memantine or Memit and (1 μM) Rapamycin and incubated at 37° C. for 4 and 24 h. Treated cells were washed twice with PBS and lysed in Tris-buffered saline buffer-1% Triton-X100; NaCl 150 mM; Tris-HCl 20 mM; EDTA 1 mM; EGTA 1 mM; NaF 20 mM; Na4P2O7 25 mM; Na3VO4 1 mM; PMSF 1 mM; 8 μ/ml protein cocktail inhibitors (Sigma-Aldrich, Milan, Italy). Proteins (30-40 μg) were separated on Criterion TGX™ gel (4-20%) and transferred on Immuno-PVDF membrane (Bio-Rad, Milan, Italy) for 1 h. Blots were incubated for 12 h with diluted primary antibody [1:1000, LC3A/B; p62; mTOR, p-mTOR; Akt, p-Akt(Ser 473); β-actin, Cell Signaling] in 5% w/v BSA, 1× TBS and 0.1% Tween 20 at 4° C. under gentle shaking. Then, blots were washed three times for 10 min with 1× TBS, 0.1% Tween 20 and incubated for 1 h with secondary antibody (peroxidase-coupled anti rabbit in 1× TBS, 0.1% Tween 20). […] Band densitometric analysis was performed using Image Lab Software (Bio-Rad, Milan, Italy).
Evaluation of proautophagic activity: Expression of protein LC3-II, p62, and m-TOR, indicators of autophagy, were detected by western blotting, using Rapamycin as a positive control. In U87MG cell lines.

Rat microglia cells = assay: Microglia protection from Aβ(1-42) induced injury (MTS assay); type: cell-based; conditions: 10 μM pre-treatment 24 h, then Aβ1-42 24 h
Description: FIG. 7. Rat microglia cells were pre-treated with the compounds (10 μM) for 24 h. After washing, the cells were incubated with Aβ1-42 for 24 h. At the end of treatments, cell proliferation was measured by MTS assay. The data are expressed as percentages relative to untreated cells (control), which were set at 100%, and represent the mean±SEM of three independent experiments, each performed in triplicate. Statistical significance was determined using a one-way ANOVA followed by a Bonferroni post-test: *p<0.05 vs control; #p<0.05 vs cells treated with Aβ1-42.
Cell proliferation/viability assays on rat microglia cells. Rat microglia cells were isolated from mixed cell culture obtained from Sprague-Dawley rat cortex, by gentle physical shaking, as described. After isolation, cells were seeded into 96 well-plated with fresh culture media and pretreated with MT66 or native drug (10 μM) for 24 h; before washing and incubation with Aβ1-42 for 24 h. Following incubation time, cell viability was determined using the MTS assay. The absorbance of formazan was measured at […]. The results were calculated by subtracting the mean background from the values obtained from each test condition and were expressed as the percentage of the control (untreated cells).
Microglia protection from Aβ(1-42) induced injury. Microglia, together with astrocytes, forms the main active immune defense of the CNS. […]

[5] = presence of 4 mM cysteine, 30 min preincubation, read-out: Ki, nM (+Cys 4 mM, 30 min)

In the case of `C1COCCN1.COc1ccc(P(=S)(S)N2CCOCC2)cc1` (centres unmarked) [GYY4137, reference compound], the H2S-releasing properties [1] is reported as “slow H2S-releasing”.

In the case of `CC12CC3CC(C)(C1)CC(N=C=S)(C3)C2` [MT66], the “Percentage of inhibition of specific [3H]MK-801 binding (−Cys)” value (NMDAR; absence of cysteine, concentration not given) is reported as 28.0% ^b, the Ki (NMDAR; [5]) is reported as 458 ± 77.7 nM and the H2S-releasing properties [1] is reported as “slow and L-cysteine-dependent H2S-releasing mechanism”. For the same compound, the “cell proliferation/viability after inflammatory insult” value [2] was “exhibited neuroprotective effects during inflammation”, the “ROS accumulation under inflammatory conditions” value [3] was “almost completely counteracted inflammatory-mediated effects” and the “Aβ(1-40) self-induced aggregation” value [4] was “induces a reduction”. The “LC3II expression (LC3II/LC3I ratio)” value (U87MG cells) was “significant up-regulation”, the p62 expression (U87MG cells) was “decreased expressions” and the “p-mTOR expression (p-mTOR/mTOR ratio)” value (U87MG cells) was “decreased expressions”. For the same compound, the LC3II expression (U87MG cells) was “remained almost unchanged” and the “cell proliferation after Aβ1-42 oligomers” value (Rat microglia cells) was “completely restore cell proliferation”.

For `CC12CC3CC(C)(C1)CC(N)(C3)C2` [Memantine, reference compound], the Ki (NMDAR; absence of cysteine, 3 nM [3H]MK-801, rat cortex membranes, read-out: Ki, nM (−Cys)) was 955 ± 74.2 nM, the Ki (NMDAR; [5]) was 329 ± 10.9 nM and the “LC3II expression (LC3II/LC3I ratio)” value (U87MG cells) was “significant up-regulation”. The p62 expression (U87MG cells) was “decreased expressions”, the “p-mTOR expression (p-mTOR/mTOR ratio)” value (U87MG cells) was “decreased expressions” and the LC3II expression (U87MG cells) was “remained almost unchanged”. For the same compound, the “cell proliferation after Aβ1-42 oligomers” value (Rat microglia cells) was “completely restore cell proliferation”.

`CC12NC(Cc3ccccc31)c1ccccc12` (centres unmarked) [[^3H]MK-801] gave a Kd (NMDAR; rat cortex membranes, read-out: dissociation constant (Kd) of [3H]MK-801) of 4 nM.
